The target in this experiment is T1, human IBAT (Homo sapiens, UniProt Q12908).
T1 construct: expressed in transfected cells; host or cells: Baby hamster kidney (BHK) cells, clone H14
T1 sequence (Q12908 1-348): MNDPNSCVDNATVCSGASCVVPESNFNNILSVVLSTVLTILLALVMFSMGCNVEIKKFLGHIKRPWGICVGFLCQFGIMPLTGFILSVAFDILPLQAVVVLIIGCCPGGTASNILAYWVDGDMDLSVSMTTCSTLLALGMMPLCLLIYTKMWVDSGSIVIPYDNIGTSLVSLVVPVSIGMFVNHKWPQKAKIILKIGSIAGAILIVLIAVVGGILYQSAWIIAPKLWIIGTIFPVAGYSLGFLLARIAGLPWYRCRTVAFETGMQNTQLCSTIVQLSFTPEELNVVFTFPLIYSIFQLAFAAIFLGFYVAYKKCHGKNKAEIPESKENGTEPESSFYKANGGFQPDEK
In words: In vitro assay of IBAT-mediated uptake of [14C]-taurocholate (TC) in H14 cells. Particulars: for inhibition at 100 µM: read-out: In vitro % Inhibition of TC Uptake @ 100 uM; for IC50: H14 cells, Table 5, read-out: IC50 uM (In vitro Taurocholate Cell Uptake). The class given is cell-based. The method, then: In Vitro Assay of Compounds that Inhibit IBAT-Mediated Uptake of [^14C]-Taurocholate (TC) in H14 Cells
Baby hamster kidney cells (BHK) transfected with the cDNA of human IBAT (H14 cells) are seeded at 60,000 cells/well in 96 well Top-Count tissue culture plates for assays run within in 24 hours of seeding, 30,000 cells/well for assays run within 48 hours, and 10,000 cells/well for assays run within 72 hours.
On the day of assay, the cell monolayer is gently washed once with 100 μl assay buffer (Dulbecco's Modified Eagle's medium with 4.5 g/L glucose+0.2% (w/v) fatty acid free bovine serum albumin-(FAF)BSA). To each well 50 μl of a two-fold concentrate of test compound in assay buffer is added along with 50 μl of 6 μM [^14C]-taurocholate in assay buffer (final concentration of 3 μM [^14C]-taurocholate). The cell culture plates are incubated 2 hours at 37° C. prior to gently washing each well twice with 100 μl 4° C. Dulbecco's phosphate-buffered saline (PBS) containing 0.2% (w/v) (FAF)BSA. The wells are then gently washed once with 100 μl 4° C. PBS without (FAF)BSA. To each 200 μl of liquid scintillation counting fluid is added, the plates are heat sealed and shaken for 30 minutes at room temperature prior to measuring the amount of radioactivity in each well on a Packard Top-Count instrument.

Molecules are shown by their SMILES. pIC50: −log10 of the molar value. Read-outs that look alike come from different tables or passages of the source.

A word on the inhibition: it is the drop in the measured response relative to a control, in per cent. Consider `CCCC[C@]1(CC)CS(=O)(=O)c2ccccc2[C@H](c2ccccc2)[C@H]1O` [Example 6b, (3α,4β,5α) 3-Butyl-3-ethyl-4-hydroxy-5-phenyl-2,3,4,5-tetrahydro-benzothiepine-1,1-dioxide], for which, where the note is “100 uM”, the inhibition at 100 µM stood at 85%.
Turning to `CCCC[C@]1(CC)CS(=O)(=O)c2ccccc2[C@@]2(c3ccccc3)O[C@@H]12` [Example 8a, (1aα,2β,8bα) 2-Butyl-2-ethyl-8b-phenyl-1α,2,3,8b-tetrahydro-benzothiepino[4,5-b]oxirene-4,4-dioxide], the inhibition at 100 µM (100 uM) is 41%.
Take `CCC1C=C(c2ccccc2)c2ccccc2SC1` (stereo not drawn) [Example 12, 3-Ethyl-5-phenyl-2,3-dihydrobenzothiepine]: the inhibition at 100 µM stood at 25%.
Consider `CCC1CS(=O)(=O)c2ccccc2[C@@]2(c3ccccc3)O[C@@H]12` (stereo partly drawn) [Example 13, (1aα,2α,8bα) 2-Ethyl-8b-phenyl-1a,2,3,8b-tetrahydro-benzothiepino-[4,5-b] oxirene-4,4-dioxide], for which the inhibition at 100 µM (100 uM) turned out to be 23%.
On the same count and under the same terms, with `CC[C@@H]1CS(=O)(=O)c2ccccc2[C@H](c2ccccc2)[C@H]1O` [Example 14a, (3α,4β,5α)-3-Ethyl-4-hydroxy-5-phenyl-2,3,4,5-tetrahydro-benzothiepine-1,1-dioxide] the figure was 13%.
Same read-out and setting: with `CC[C@@H]1CS(=O)(=O)c2ccccc2[C@@H](c2ccccc2)[C@H]1O` [Example 14b, (3α,4β,5β) 3-Ethyl-4-hydroxy-5-phenyl-2,3,4,5-tetrahydrobenzothiepine-1,1-dioxide] the figure was 18%; with `CCCCC1(CC)C=Cc2ccccc2SC1` (stereo not drawn) [Example 18, 3-Butyl-3-ethyl-2,3-dihydrobenzothiepine], 6%.
The same measure, in the same setting: with `CCCC[C@]1(CC)CS(=O)(=O)c2ccccc2[C@@H]2O[C@@H]21` [Example 19a, (1aα,2α,8bα) 2-Butyl-2-ethyl-1a,2,3,8b-tetrahydro-benzothiepino[4,5-b]oxirene-4,4-dioxide] the figure was 0%; with `CCCC[C@]1(CC)CS(=O)(=O)c2ccccc2[C@H]2O[C@H]21` [Example 19b], 15%; with `CCCCC1(CC)CS(=O)(=O)c2ccccc2C(Sc2ccccc2)C1O` (stereo not drawn) [Example 21a, 3-Butyl-3-ethyl-4-hydroxy-5-phenylthio-2,3,4,5-tetrahydro-benzothiepine-1,1-dioxide], 37%.
Regarding `CCCCCCNc1ccc2c(c1)[C@H](c1ccccc1)[C@H](O)[C@](CC)(CCCC)CS2(=O)=O` [Example 40, (3α,4α,5α) 3-Butyl-3-ethyl-7-(n-hexylamino)-4-hydroxy-5-phenyl-2,3,4,5-tetrahydrobenzothiepine-1,1-dioxide], at 50 µM the inhibition was 49%.
One may read the IC50 as the concentration needed to halve the response being measured. As for `CCCC[C@]1(CC)CS(=O)(=O)c2ccccc2[C@@H](c2ccc(I)cc2)[C@H]1O` [Example 42, (3α,4β,5β) 3-Butyl-3-ethyl-4-hydroxy-5-(4-iodophenyl)-2,3,4,5-tetrahydrobenzothiepine-1,1-dioxide], the IC50 came out at 1.5 µM.
The compound `C1=C(c2ccccc2)c2ccccc2SCC12CCCCC2` [Example 57, 5-Phenyl-2,3-dihydrospirobenzothiepine-3,1′-cyclohexane] gave an inhibition at 50 µM of 51%.
Compound `O=S1(=O)CC2(CCCCC2)C2OC2(c2ccccc2)c2ccccc21` (stereo not drawn) [Example 58, 8b-Phenyl-1a,2,3,8b-tetrahydrospiro(benzothiepino[4,5-b]oxirene-2,1′-cyclohexane)-4,4-dioxide] had an inhibition at 50 µM of 20%.
With `CCCC[C@]1(CC)CSc2ccccc2[C@H](c2ccccc2)[C@@H]1O` [Example 61, (3α,4α,5α) 3-Butyl-3-ethyl-4-hydroxy-5-phenyl-2,3,4,5-tetrahydrobenzothiepine], the IC50 was 30 µM.
Still for that read-out and setting: for `CCCC[C@]1(CC)CSc2ccccc2[C@@H](c2ccccc2)[C@H]1O` [Example 62, (3α,4β,5β) 3-Butyl-3-ethyl-4-hydroxy-5-phenyl-2,3,4,5-tetrahydrobenzothiepine] the value was 10 µM.
On to `CCCC[C@]1(CC)CS(=O)(=O)c2ccc(N)cc2[C@H](c2ccccc2)[C@@H]1O` [Example 63, (3α,4α,5α) 3-Butyl-3ethyl-4-hydroxy-7-amino-5-phenyl-2,3,4,5-tetrahydrobenzothiepine-1,1-dioxide], for which the inhibition at 6 µM stood at 90%.
The same measure, in the same setting: for `CCCC[C@]1(CC)CS(=O)(=O)c2ccc(N)cc2[C@@H](c2ccccc2)[C@H]1O` [Example 64, (3α,4β,5β) 3-Butyl-3-ethyl-4-hydroxy-7-amino-5-phenyl-2,3,4,5-tetrahydrobenzothiepine-1,1-dioxide] the value was 100%.
Usually pIC50 stands for the IC50 on a negative log10 scale, so that one unit is a factor of ten. On to `CCCC[C@]1(CC)CS(=O)(=O)c2ccc([N+](C)(C)C)cc2[C@@H](c2ccccc2)[C@H]1O` [Example 102], for which, under “read-out: Human TC IC50”, the pIC50 is 7.08.
Under “Human TC IC50”, `CCCC[C@]1(CC)CS(=O)(=O)c2ccc(N(C)C)cc2[C@@H](c2ccccc2)[C@H]1O` [Example 104] gave a pIC50 of 8.25.
Regarding `CCCCC1(CC)CS(=O)(=O)c2ccc(NS(C)(=O)=O)cc2C(c2ccccc2)C1O` (stereo not drawn) [Example 105], the pIC50 (read-out: Human TC IC50) was 6.22.
On the same count and under the same terms, for `CCCCC1(CC)CS(=O)(=O)c2ccc(NC(=O)CBr)cc2C(c2ccccc2)C1O` (stereo not drawn) [Example 106] the value was 6.10.
The same measure, in the same setting: with `CCCCCC(=O)Nc1ccc2c(c1)C(c1ccccc1)C(O)C(CC)(CCCC)CS2(=O)=O` (stereo not drawn) [Example 108] the figure was 6.52; with `CCCCC1(CC)CS(=O)(=O)c2ccc(NC(C)=O)cc2C(c2ccccc2)C1O` (stereo not drawn) [Example 110], 7.05.
Still for that read-out and setting: for `CCCC[C@@]1(CC)CS(=O)(=O)c2ccc(N)cc2[C@@H](c2ccc(O)cc2)[C@H]1O` [Example 111] the value was 5.60.
In the case of `CCCC[C@]1(CC)CS(=O)(=O)c2ccc(N)cc2[C@@H](c2ccc(OCCOCCOCCOc3ccc([C@H]4c5cc(N)ccc5S(=O)(=O)C[C@](CC)(CCCC)[C@H]4O)cc3)cc2)[C@H]1O` [Example 112], the pIC50 (read-out: Human TC IC50) is 5.52.
The same measure, in the same setting: with `CCCC[C@]1(CC)CS(=O)(=O)c2ccc(N)cc2[C@@H](c2ccc(O)cc2)[C@H]1O` [Example 113] the figure was 7.00; with `CCCCC1(CC)CS(=O)(=O)c2ccc(N)cc2C(c2ccc(OC)cc2)C1O` (stereo not drawn) [Example 114], 6.72.
On the same count and under the same terms, for `CCCCC1(CC)CS(=O)(=O)c2ccc(NC(=O)OCc3ccccc3)cc2C(c2ccccc2)C1O` (stereo not drawn) [Example 118] the value was 6.40.
The same measure, in the same setting: with `CCCCCCNc1ccc2c(c1)C(c1ccccc1)C(O)C(CC)(CCCC)CS2(=O)=O` (stereo not drawn) [Example 123] the figure was 5.78.
For the compound `CCCC[C@]1(CC)CS(=O)(=O)c2cc(OCCOCCOCC[N+](C)(C)C)ccc2[C@@H](c2ccccc2)[C@H]1O` [Example 125], where the note is “read-out: Human TC IC50”, the pIC50 was 4.74.
Still for that read-out and setting: for `CCCCC1(CC)CS(=O)(=O)c2ccc(NC(=O)OCc3ccccc3)cc2C(c2ccc(F)cc2)C1O` (stereo not drawn) [Example 128] the value was 6.15; for `CCCC[C@]1(CC)CS(=O)(=O)c2cc(OCCOCCOCCI)ccc2[C@@H](c2ccccc2)[C@H]1O` [Example 134], 6.52.
The same measure, in the same setting: for `CCCC[C@]1(CC)CS(=O)(=O)c2cc(O)ccc2[C@@H](c2ccccc2)[C@H]1O` [Example 136] the value was 7.05; for `CCCCC1(CC)CS(=O)(=O)c2cc(OC(C)=O)ccc2C(c2ccccc2)C1O` (stereo not drawn) [Example 138], 5.52.
With `CCCCC1(CC)CS(=O)(=O)c2ccc(OCCCCCCOc3ccc4c(c3)C(c3ccccc3)C(O)C(CC)(CCCC)CS4(=O)=O)cc2C(c2ccccc2)C1O` (stereo not drawn) [Example 139], the pIC50 (Human TC IC50) was less than 4.60.
On to `CCCCC1(CC)CS(=O)(=O)c2ccc(N3CCC3)cc2C(c2ccc(F)cc2)C1O` (stereo not drawn) [Example 144], for which the pIC50 (read-out: Human TC IC50) was 7.28.
The same measure, in the same setting: for `CCCCC1(CC)CS(=O)(=O)c2ccc(O)cc2C(c2cccc(O)c2)C1O` (stereo not drawn) [Example 266] the value was 6.30; for `CCCCC1(CC)CS(=O)(=O)c2ccc(OC)cc2C(c2cccc(O)c2)C1O` (stereo not drawn) [Example 267], 7.14; for `CCCCC1(CC)CS(=O)(=O)c2ccc(OC)cc2C(c2ccc(F)cc2)C1O` (stereo not drawn) [Example 268], 7.54.
`CCCCC1(CC)CS(=O)(=O)c2ccc(OC)cc2C(c2ccc(F)cc2)C1O` (stereo not drawn) [Example 269]: the pIC50 (read-out: Human TC IC50) is 7.10.
Turning to `CCCCC1(CC)CS(=O)(=O)c2ccc(O)cc2C(c2ccc(F)cc2)C1O` (stereo not drawn) [Example 270], the pIC50 (read-out: Human TC IC50) is 6.92.
Still for that read-out and setting: with `CCCCC1(CC)CS(=O)(=O)c2ccc(F)cc2C(c2cccc(OC)c2)C1O` (stereo not drawn) [Example 276] the figure was 6.64; with `CCCCC1(CC)CS(=O)(=O)c2ccc(OC)cc2C(c2cccc(F)c2)C1O` (stereo not drawn) [Example 277], 7.40; with `CCCCC1(CC)CS(=O)(=O)c2ccc(OC)cc2C(c2ccccc2F)C1O` (stereo not drawn) [Example 280], 6.74.
